Reference: ChEMBL document CHEMBL1149677, “Synthesis of fluorescent and photoaffinity-labeled derivatives of bisphenol A and their inhibitory activity toward hypoxic expression of erythropoietin” (Bioorg Med Chem Lett, 2007)
Calls of active or inactive are those of the source. No cut-off for these calls is given here.

Columns and labels:
Format in all cases: functional, cell-based
Hep 3B2 [1] = assay: Inhibition of erythropoietin expression in human Hep3B cells
Hep 3B2 [2] = assay: Inhibition of erythropoietin expression in human Hep3B cells at 200 uM
Hep 3B2 [3] = assay: Inhibition of erythropoietin expression in human Hep3B cells at 300 uM

Structure (SMILES)	Activity (Hep 3B2 [1])	further results
COCOc1ccc(C(C)(C)c2ccc(OCCCCOc3ccc(C4(C(F)(F)F)N=N4)cc3)cc2)cc1	inactive	–
CC(C)(c1ccc(O)cc1)c1ccc(OCCCCNc2ccc([N+](=O)[O-])c3nonc23)cc1	Active	–
COCOc1ccc(C(C)(C)c2ccc(OCCCCNc3ccc([N+](=O)[O-])c4nonc34)cc2)cc1	Active	–
CC(C)(c1ccc(OCCCCNc2ccc([N+](=O)[O-])c3nonc23)cc1)c1ccc(OCCCCOc2ccc(C3(C(F)(F)F)N=N3)cc2)cc1	–	Activity (Hep 3B2 [2]): Active
CC(C)(c1ccc(OCCNc2ccc([N+](=O)[O-])c3nonc23)cc1)c1ccc(OCCOc2ccc(C3(C(F)(F)F)N=N3)cc2)cc1	–	Activity (Hep 3B2 [3]): Active
